Experiments:
[1] = Phase 1 fixed-sequence study, sotorasib with omeprazole under fasted conditions; format: in vivo, human
[2] = Phase 1 fixed-sequence study, sotorasib with rifampin; format: in vivo, human
[3] = tested on: extracellular signal-regulated kinase (ERK); settings: preclinical studies; cited from earlier work
[4] = Phase 1 fixed-sequence crossover study, sotorasib with famotidine or omeprazole under fed conditions; format: in vivo, human; settings: for decrease of sotorasib AUC / decrease of sotorasib Cmax: fed conditions
Method: Safety and tolerability monitoring was performed throughout the study.
A total of […] healthy subjects (1 woman and 13 men) were enrolled in the study. Thirteen out of the 14 subjects received all treatments and completed the study.

[5] = Phase 1 fixed-sequence study, digoxin with sotorasib; format: in vivo, human
Method: Blood samples for digoxin PK were collected predose and up to 144 hours post-digoxin dose. Samples were measured using validated high-performance liquid chromatography tandem mass spectrometry methods.

[6] = Phase 1 fixed-sequence study, midazolam with sotorasib; settings: 2 mg midazolam coadministered with 960 mg sotorasib after 14 days of daily sotorasib vs midazolam alone, 5 subjects
[7] = coadministration with omeprazole vs sotorasib alone, fasted state
[8] = famotidine 10 hours prior to and 2 hours after a single dose of sotorasib
[9] = repeat doses of omeprazole with a single dose of sotorasib
[10] = coadministration with a single dose of sotorasib vs digoxin alone
[11] = with sotorasib vs digoxin alone

With C=CC(=O)N1CCN(c2nc(=O)n(-c3c(C)ccnc3C(C)C)c3nc(-c4c(O)cccc4F)c(F)cc23)[C@@H](C)C1 (atropisomer, axis not shown) [sotorasib, 6-fluoro-7-(2-fluoro-6-hydroxyphenyl)-(1M)-1-[4-methyl-2-(propan-2-yl)pyridin-3-yl]-4-[(2S)-2-methyl-4-(prop-2-enoyl)piperazin-1-yl]pyrido[2,3-d]pyrimidin-2(1H)-one] the safety and tolerability ([1]; coadministered with 40 mg omeprazole or administered alone, healthy subjects) was “safe and well tolerated”, the “decrease of sotorasib AUCinf” value [1, 7] was 42% and the “decrease of sotorasib Cmax” value [1, 7] was 57%. The “Mean terminal half-life (t1/2), coadministration compared to alone” value ([1]; with omeprazole vs sotorasib alone, fasted) was “similar”, the safety and tolerability ([2]; coadministered with 600 mg rifampin or administered alone, healthy subjects) was “safe and well tolerated” and the CYP3A4 substrate status ([2]; inferred from multiple doses of rifampin, consistent with in vitro data) was “is a CYP3A4 substrate”. The OATP1B1 substrate status ([2]; inferred from single dose of rifampin) was “not a substrate of OATP1B1”, the “decrease of sotorasib AUCinf” value ([2]; multiple doses of rifampin) was 51% and the “decrease of sotorasib Cmax” value ([2]; multiple doses of rifampin) was 35%. For the same molecule, the “phosphorylation of extracellular signal-regulated kinase (ERK)” value [3] was “inhibited nearly all detectable phosphorylation”, the safety and tolerability ([4]; 960 mg sotorasib with single dose 40 mg famotidine and after multiple daily 40 mg omeprazole, fed, healthy subjects) was “safe and well tolerated” and the “decrease of sotorasib AUC” value [4, 8] was 38%. For the same molecule, the “decrease of sotorasib Cmax” value [4, 8] was 35%, the “decrease of sotorasib AUC” value [4, 9] was 57% and the “decrease of sotorasib Cmax” value [4, 9] was 65%.

With C[C@H]1O[C@@H](O[C@H]2[C@@H](O)C[C@H](O[C@H]3[C@@H](O)C[C@H](O[C@H]4CC[C@@]5(C)[C@H](CC[C@@H]6[C@@H]5C[C@@H](O)[C@]5(C)[C@@H](C7=CC(=O)OC7)CC[C@]65O)C4)O[C@@H]3C)O[C@@H]2C)C[C@H](O)[C@@H]1O [digoxin] the “increase of digoxin AUCinf” value [5, 10] was “approximately 21%”, the “increase of digoxin Cmax” value [5, 10] was roughly 91% and the safety and tolerability ([5]; single doses of 0.5 mg digoxin alone or coadministered with 960 mg sotorasib) was “safe and well tolerated”. For the same molecule, the “Digoxin mean terminal half-life (t1/2), coadministration compared to alone” value [5, 11] was “similar” and the “Digoxin median time to maximal plasma concentration (tmax), coadministration compared to alone” value [5, 11] was “similar”.

For Cc1ncc2n1-c1ccc(Cl)cc1C(c1ccccc1F)=NC2 [midazolam], the “decrease of midazolam AUV” value [6] was 53% and the “decrease of midazolam Cmax” value [6] was 48%.
